From ChEMBL document CHEMBL1123341, “Thromboxane A2 synthase inhibitors. 5-(3-Pyridylmethyl)benzofuran-2-carboxylic acids” (J Med Chem, 1986)
Converted amounts (≈) assume the structure as drawn.

What was measured:
[1] = molecular target: T1, Thromboxane-A synthase (Homo sapiens) (UniProt P24557); assay: In vitro inhibition of TXA2 biosynthesis in human microsomal platelets relative to Sodium Furegrelate; assay type: functional, microsomes; details: Microsome
T1 sequence (whole entry): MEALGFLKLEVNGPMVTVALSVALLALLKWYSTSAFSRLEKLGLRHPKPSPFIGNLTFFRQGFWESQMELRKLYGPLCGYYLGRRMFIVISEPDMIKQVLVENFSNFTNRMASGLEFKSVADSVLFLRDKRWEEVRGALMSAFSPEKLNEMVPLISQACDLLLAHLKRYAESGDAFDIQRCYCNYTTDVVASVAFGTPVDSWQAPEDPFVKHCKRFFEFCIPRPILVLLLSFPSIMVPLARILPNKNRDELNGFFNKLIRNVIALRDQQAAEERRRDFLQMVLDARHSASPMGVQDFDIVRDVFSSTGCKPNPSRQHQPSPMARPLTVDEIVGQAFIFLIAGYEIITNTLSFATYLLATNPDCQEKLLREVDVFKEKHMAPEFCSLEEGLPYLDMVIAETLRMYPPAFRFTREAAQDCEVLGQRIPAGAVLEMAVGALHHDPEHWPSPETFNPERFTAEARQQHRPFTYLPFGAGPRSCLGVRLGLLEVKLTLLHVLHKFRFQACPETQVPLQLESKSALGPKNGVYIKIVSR

[2] = molecular target: T1, Thromboxane-A synthase (Homo sapiens); assay: In vitro inhibition of TXA2 biosynthesis in human microsomal platelets; assay type: functional, microsomes; details: Microsome
[3] = molecular target: T1, Thromboxane-A synthase (Homo sapiens); assay: Compound was tested in vitro for its ability to inhibit TXA2 biosynthesis in human microsomal platelets; assay type: functional, microsomes; details: Microsome
[4] = test system: Thromboxane-A synthase (Cavia porcellus); assay: Compound was tested for thromboxane synthase activity in microsomal preparations from guinea pig lung(GPLM)
[5] = molecular target: T1, Thromboxane-A synthase (Homo sapiens); assay: Compound was tested for thromboxane synthase activity in microsomal preparations from human platelets(HPM); assay type: functional
[6] = test system: Thromboxane-A synthase (Canis lupus familiaris); assay: Compound was tested for thromboxane synthase activity in microsomal preparations from dog lung(DLM)

Row | Relative potency [1] | ED50 [2] [µg/mL] | SMILES | other results
1 | 0.3 | 0.03 (≈ 0.118 µM) | O=C(O)c1cc2ccc(Cc3cccnc3)cc2o1 | –
2 | – | – | O=C(O)c1cc2cc(Cc3cccnc3Cl)ccc2o1 | ED50 [3]: 0.1 µg/mL (≈ 0.348 µM); Relative potency [3]: 0.1
3 | 0.003 | 3 (≈ 11.2 µM) | O=C(O)c1cc2cc(CCc3cccnc3)ccc2o1 | –
4 | 0.003 | 0.3 (≈ 1.19 µM) | NC(=O)c1cc2cc(Cc3cccnc3)ccc2o1 | –
5 | 0.3 | 0.03 (≈ 0.112 µM) | Cc1c(C(=O)O)oc2ccc(Cc3cccnc3)cc12 | –
6 | – | – | CCCCC[C@H](O)/C=C/[C@H]1C2CC(N=N2)[C@@H]1C/C=C\CCCC(=O)O (some centres not stated) | ED50 [3]: 0.03 µg/mL (≈ 0.0861 µM); Relative potency [3]: 0.3
7 | 0.3 | 0.03 (≈ 0.106 µM) | COc1cc(Cc2cccnc2)cc2cc(C(=O)O)oc12 | –
8 | 0.3 | 0.03 (≈ 0.112 µM) | Cc1cc(Cc2cccnc2)cc2cc(C(=O)O)oc12 | –
9 | – | – | O=C(O)c1cc2cc(Cc3ccc(Cl)nc3)ccc2o1 | ED50 [3]: > 10 µg/mL; Relative potency [3]: < 0.001
10 | 0.3 | 0.03 (≈ 0.125 µM) | O=C(O)c1cc2cc(-c3cccnc3)ccc2o1 | –
11 | 0.3 | 0.03 (≈ 0.118 µM) | C/C(=C\c1ccc(Cc2cccnc2)cc1)C(=O)O | ED50 [4]: 0.2 µg/mL (≈ 0.79 µM); ED50 [5]: 0.03 µg/mL (≈ 0.118 µM); ED50 [6]: 0.003 µg/mL (≈ 0.0118 µM)
12 | 0.003 | 3 (≈ 11.2 µM) | O=C(O)c1cc2ccc(CCc3cccnc3)cc2o1 | –
13 | < 0.0001 | > 10 | O=C(O)c1cc2cc(Cc3cnccc3Cl)ccc2o1 | –
14 | 0.3 | 0.03 (≈ 0.0903 µM) | O=C(O)c1cc2cc(Cc3cccnc3)cc(Br)c2o1 | –
15 | – | 0.01 (≈ 0.0395 µM) | O=C(O)c1cc2cc(Cc3cccnc3)ccc2o1 | ED50 [5]: 0.01 µg/mL (≈ 0.0395 µM)
16 | – | – | O=C(O)c1cc2cc(Cc3ccc[n+]([O-])c3)ccc2o1 | ED50 [3]: > 10 µg/mL; Relative potency [3]: < 0.001
17 | 0.003 | 3 (≈ 11.2 µM) | O=C(c1cccnc1)c1ccc2oc(C(=O)O)cc2c1 | –
